Among the data in US12325697B2 (Nimbus Clio, Inc., priority 2021, dated 2025) are IC50 and EC50 values, retold here.

Where a name gives a salt, the structure may show the parent alone.

The target of test [1] is Recombinant human Cbl-b (aa 36-427) (Homo sapiens (Human), UniProt Q13191). Kind of test: Cbl-b Biochemical Assay (TR-FRET). The settings on record: read-out: TR-FRET hCbl-b IC50. In a few lines: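 Two-step TR-FRET: 6 nM biotinylated Cbl-b preincubated 30-60 min with compound, then 60 min at RT with 1-2.5 nM Src-Zap70 and 0.5 mM ATP in HEPES pH 7.0 buffer, 1% DMSO. Stopped with 5 mM EDTA plus 100 nM UBE2D2-Ub-FL-BODIPY and 1 nM streptavidin-Tb, 60 min; 520 nm signal; IC50 from 4-parameter fit.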
(In general: TR-FRET usually uses a lanthanide donor and a delayed reading to cut background.)

In test [2] the test system is Jurkat (clone E6-1) cells, NFAT luciferase reporter. Kind of test: Jurkat Reporter Assay (NFAT Luciferase). The class given is cell-based. The settings on record: Homo sapiens, anti-CD3 stimulation, 6 hr, read-out: Jurkat NFAT EC50. (In a reporter assay the amount or activity of a reporter protein is the signal.)

Chain of Recombinant human Cbl-b (aa 36-427) (Q13191 36-427): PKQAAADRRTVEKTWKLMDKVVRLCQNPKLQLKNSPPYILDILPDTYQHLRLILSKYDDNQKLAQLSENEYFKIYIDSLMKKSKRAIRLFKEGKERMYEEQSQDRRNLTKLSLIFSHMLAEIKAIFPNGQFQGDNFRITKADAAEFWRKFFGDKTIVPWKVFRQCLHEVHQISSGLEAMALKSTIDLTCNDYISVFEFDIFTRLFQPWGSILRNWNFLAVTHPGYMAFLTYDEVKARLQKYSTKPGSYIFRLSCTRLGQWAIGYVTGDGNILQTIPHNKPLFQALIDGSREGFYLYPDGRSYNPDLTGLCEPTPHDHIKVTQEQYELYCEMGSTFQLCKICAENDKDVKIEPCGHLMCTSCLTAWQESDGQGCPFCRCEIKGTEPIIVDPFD

By IC50 is commonly meant the concentration at which inhibition is half-maximal. Broadly, the EC50 is the concentration that produces a half-maximal response. Consider `C[C@H](Cc1nncn1C)c1cc(Cl)nc(N2Cc3c(cccc3C(F)(F)F)C2=O)c1` [AHJ-11, (R)-2-(6-Chloro-4-(1-(4-methyl-4H-1,2,4-triazol-3-yl)propan-2-yl)pyridin-2-yl)-4-(trifluoromethyl)isoindolin-1-one], for which, in test [1], the IC50 lay in the range of 1 to 10 µM. The EC50 in test [2] fell in the range of 10 to 50 µM.

For the compound `Cn1cnnc1-c1cc(C#N)ccc1-c1cccc(C(=O)Nc2cc(CN[C@@H]3CCC[C@@H]3O)cc(C(F)(F)F)c2N)c1` [ADW-5, N-[2-Amino-5-({[(1R,2S)-2-hydroxycyclopentyl]amino}methyl)-3-(trifluoromethyl)phenyl]-4′-cyano-2′-(4-methyl-1,2,4-triazol-3-yl)-[1,1′-biphenyl]-3-carboxamide], the IC50 in test [1] lay within 1 to 10 µM. Moreover, the EC50 in test [2] was in the range of 10 to 50 µM.

`O=C1c2cc(CNCC3(O)CCC3)cc(C(F)(F)F)c2CN1c1ccccc1` [AX-3, 6-((((1-Hydroxycyclobutyl)methyl)amino)methyl)-2-phenyl-4-(trifluoromethyl)isoindolin-1-one]: in test [1], the IC50 lay in the range of 10 to 50 µM. Further, the EC50 in test [2] is 10 to 50 µM.

Turning to `Cn1cnnc1-c1cc(C#N)ccc1-c1cc(C2CC2)nc(N2Cc3c(cc(COCCO)cc3C(F)(F)F)C2=O)c1` [AHF-4, 4-(2-Cyclopropyl-6-{6-[(2-hydroxyethoxy)methyl]-1-oxo-4-(trifluoromethyl)-3H-isoindol-2-yl}pyridin-4-yl)-3-(4-methyl-1,2,4-triazol-3-yl)benzonitrile], in test [1], the IC50 was at most 0.2 µM. The EC50 in test [2] is under 0.2 µM.

Take `COc1ccc2c(c1)CN(c1cc(-c3ccccc3-c3nncn3C)cc(C3CC3)n1)C2=O` [AER-1]: in test [1], the IC50 is at most 0.2 µM. Also, the EC50 in test [2] was in the range of 10 to 50 µM.

As to `CCNc1cc(-c2ccc(OC)cc2-c2nncn2C)cc(N2Cc3c(cccc3C(F)(F)F)C2=O)n1` [AFB-8, 2-[6-(Ethylamino)-4-[4-methoxy-2-(4-methyl-1,2,4-triazol-3-yl)phenyl]pyridin-2-yl]-4-(trifluoromethyl)-3H-isoindol-1-one], the IC50 in test [1] is at most 0.2 µM. For the same compound, the EC50 in test [2] was in the range of 0.2 to 1 µM.

As for `CCNc1cc(-c2c(-c3nncn3C)cnn2C)cc(N2Cc3c(cc(COc4cnoc4)cc3C(F)(F)F)C2=O)n1` [ADE-2, 2-[6-(Ethylamino)-4-[2-methyl-4-(4-methyl-1,2,4-triazol-3-yl)pyrazol-3-yl]pyridin-2-yl]-6-[(1,2-oxazol-4-yloxy)methyl]-4-(trifluoromethyl)-3H-isoindol-1-one], the IC50 in test [1] was at most 0.2 µM. In addition, the EC50 in test [2] lay within 1 to 10 µM.

Turning to `CN1CCC(OCc2cc3c(c(C(F)(F)F)c2)CN(c2cccc(-c4ccccc4-c4nncn4C)c2)C3=O)CC1` [BC-4, 2-(2′-(4-Methyl-4H-1,2,4-triazol-3-yl)-[1,1′-biphenyl]-3-yl)-6-(((1-methylpiperidin-4-yl)oxy)methyl)-4-(trifluoromethyl)isoindolin-1-one], in test [1], the IC50 fell in the range of 0.2 to 1 µM. In addition, in test [2], the EC50 fell in the range of 1 to 10 µM.

`CCNc1cc(-c2c(-c3nncn3C)cnn2C)cc(N2Cc3c(cc(CN(C)CC4(OC)CCC4)cc3C(F)(F)F)C2=O)n1` [AEK-3, 2-(6-(Ethylamino)-4-(1-methyl-4-(4-methyl-4H-1,2,4-triazol-3-yl)-1H-pyrazol-5-yl)pyridin-2-yl)-6-((((1-methoxycyclobutyl)methyl)(methyl)amino)methyl)-4-(trifluoromethyl)isoindolin-1-one]: the IC50 in test [1] was at most 0.2 µM. In addition, the concentration for a half-maximal effect (EC50) in test [2] was in the range of 0.2 to 1 µM.

In the case of `Cn1cnnc1-c1ccccc1-c1cccc(N2Cc3c(cc(COC4CCOCC4)cc3C(F)(F)F)C2=O)c1` [BD-3, 2-(2′-(4-Methyl-4H-1,2,4-triazol-3-yl)-[1,1′-biphenyl]-3-yl)-6-(((tetrahydro-2H-pyran-4-yl)oxy)methyl)-4-(trifluoromethyl)isoindolin-1-one], the IC50 in test [1] was at most 0.2 µM. Moreover, the EC50 in test [2] fell in the range of 1 to 10 µM.

As to `Cn1cnnc1-c1cc(C#N)ccc1-c1cccc(N2Cc3c(cc(CO)cc3C(F)(F)F)C2=O)c1` [ADG-3, 3′-[6-(Hydroxymethyl)-1-oxo-4-(trifluoromethyl)-3H-isoindol-2-yl]-2-(4-methyl-1,2,4-triazol-3-yl)-[1,1′-biphenyl]-4-carbonitrile], in test [1], the IC50 was at most 0.2 µM. The EC50 in test [2] lay in the range of 10 to 50 µM.

Turning to `Cn1cnnc1-c1ccccc1-c1cccc(N2Cc3c(cc(CO[C@@H]4CCC[C@@H]4O)cc3C(F)(F)F)C2=O)c1` [AV-3, 6-((((1R,2S)-2-Hydroxycyclopentyl)oxy)methyl)-2-(2′-(4-methyl-4H-1,2,4-triazol-3-yl)-[1,1′-biphenyl]-3-yl)-4-(trifluoromethyl)isoindolin-1-one], the IC50 in test [1] is 0.2 to 1 µM. Also, in test [2], the EC50 is 1 to 10 µM.

For the compound `Cn1cnnc1-c1cc(C(N)=O)ccc1-c1cccc(N2Cc3c(cc(CO)cc3C(F)(F)F)C2=O)c1` [ADK-1, 3′-[6-(Hydroxymethyl)-1-oxo-4-(trifluoromethyl)-3H-isoindol-2-yl]-2-(4-methyl-1,2,4-triazol-3-yl)-[1,1′-biphenyl]-4-carboxamide], in test [1], the IC50 was in the range of 1 to 10 µM. In addition, the EC50 in test [2] was 10 to 50 µM.

Consider `Cn1cnnc1-c1ccccc1-c1cc(N2Cc3c(cc(CO)cc3C(F)(F)F)C2=O)nc(N2Cc3c(cc(CO)cc3C(F)(F)F)C2=O)c1` [ACX-2, 6-(Hydroxymethyl)-2-{6-[6-(hydroxymethyl)-1-oxo-4-(trifluoromethyl)-3H-isoindol-2-yl]-4-[2-(4-methyl-1,2,4-triazol-3-yl)phenyl]pyridin-2-yl}-4-(trifluoromethyl)-3H-isoindol-1-one], for which, in test [1], the IC50 was 10 to 50 µM. For the same compound, the EC50 in test [2] fell in the range of 10 to 50 µM.

As to `CCNc1cc(-c2ccccc2-c2nncn2C)cc(N2Cc3c(cc(COC4CCNCC4)cc3C(F)(F)F)C2=O)n1` [BA-4, 2-(6-(Ethylamino)-4-(2-(4-methyl-4H-1,2,4-triazol-3-yl)phenyl)pyridin-2-yl)-6-((piperidin-4-yloxy)methyl)-4-(trifluoromethyl)isoindolin-1-one, HCl], in test [1], the half-inhibitory concentration (IC50) is at most 0.2 µM. The concentration giving a half-maximal response (EC50) in test [2] fell in the range of 1 to 10 µM.

In the case of `Cn1cnnc1-c1cc(C#N)ccc1-c1cc(C2CC2)nc(N2Cc3c(cccc3C(F)(F)F)C2=O)c1` [AEG-3, 4-{2-Cyclopropyl-6-[1-oxo-4-(trifluoromethyl)-3H-isoindol-2-yl]pyridin-4-yl}-3-(4-methyl-1,2,4-triazol-3-yl)benzonitrile], in test [1], the IC50 is at most 0.2 µM. Further, the EC50 in test [2] lay in the range of 0.2 to 1 µM.

In the case of `C[C@@H](Cc1nncn1C)c1cc(NS(C)(=O)=O)nc(N2Cc3c(cccc3C(F)(F)F)C2=O)c1` [AHL-8, N-[4-[(2S)-1-(4-Methyl-1,2,4-triazol-3-yl)propan-2-yl]-6-[1-oxo-4-(trifluoromethyl)-3H-isoindol-2-yl]pyridin-2-yl]methanesulfonamide], the IC50 in test [1] was 10 to 50 µM. Further, the EC50 in test [2] was 10 to 50 µM.

As for `Cn1cnnc1-c1cc(C#N)ccc1-c1ccnc(N2Cc3c(cc(CO)cc3C(F)(F)F)C2=O)c1` [AEX-2, 4-{2-[6-(Hydroxymethyl)-1-oxo-4-(trifluoromethyl)-3H-isoindol-2-yl]pyridin-4-yl}-3-(4-methyl-1,2,4-triazol-3-yl) benzonitrile], the IC50 in test [1] is at most 0.2 µM. In test [2], the EC50 is 1 to 10 µM.

For the compound `CCNc1cc(-c2c(-c3nncn3C)cnn2C)cc(N2Cc3ccc(CNCC4(O)CCC4)cc3C2=O)n1` [AEE-2, 2-[6-(Ethylamino)-4-[2-methyl-4-(4-methyl-1,2,4-triazol-3-yl)pyrazol-3-yl]pyridin-2-yl]-6-({[(1-hydroxycyclobutyl)methyl]amino}methyl)-3H-isoindol-1-one], in test [1], the IC50 is at most 0.2 µM. For the same compound, in test [2], the EC50 was in the range of 0.2 to 1 µM.

Regarding `Cn1cnnc1-c1cc(C#N)ccc1-c1cccc(N2Cc3c(cc(CNCCO)cc3C(F)(F)F)C2=O)c1` [AEA-2, 3′-(6-{[(2-Hydroxyethyl)amino]methyl}-1-oxo-4-(trifluoromethyl)-3H-isoindol-2-yl)-2-(4-methyl-1,2,4-triazol-3-yl)-[1,1′-biphenyl]-4-carbonitrile], the IC50 in test [1] was at most 0.2 µM. Moreover, the EC50 in test [2] was in the range of 1 to 10 µM.

For `CCNc1cc(-c2c(-c3nncn3C)cnn2C)cc(N2Cc3c(cc(COCC4(F)CCC4)cc3C(F)(F)F)C2=O)n1` [AFP-2, 2-[6-(Ethylamino)-4-[2-methyl-4-(4-methyl-1,2,4-triazol-3-yl)pyrazol-3-yl]pyridin-2-yl]-6-{[(1-fluorocyclobutyl)methoxy]methyl}-4-(trifluoromethyl)-3H-isoindol-1-one], the IC50 in test [1] was at most 0.2 µM. Besides, the EC50 in test [2] is 0.2 to 1 µM.

`CCNc1cc(-c2ccc(C#N)cc2-c2nncn2C)cc(N2Cc3c(cc(N4CCCC4)cc3C(F)(F)F)C2=O)n1` [AEP-2, 4-[2-(Ethylamino)-6-[1-oxo-6-(pyrrolidin-1-yl)-4-(trifluoromethyl)-3H-isoindol-2-yl]pyridin-4-yl]-3-(4-methyl-1,2,4-triazol-3-yl)benzonitrile]: the IC50 in test [1] was 0.2 to 1 µM. Moreover, the EC50 in test [2] lay within 10 to 50 µM.

For `CCNc1cc(-c2ccccc2-c2nncn2C)cc(N2Cc3c(cc(CN4CCC(F)(F)[C@H](C)C4)cc3C(F)(F)F)C2=O)n1` [AU-2, (R)-6-((4,4-Difluoro-3-methylpiperidin-1-yl)methyl)-2-(6-(ethylamino)-4-(2-(4-methyl-4H-1,2,4-triazol-3-yl)phenyl)pyridin-2-yl)-4-(trifluoromethyl)isoindolin-1-one], in test [1], the IC50 was at most 0.2 µM. For the same compound, the EC50 in test [2] fell in the range of 0.2 to 1 µM.

In the case of `C[C@H](Cc1nncn1C)c1cc(NS(C)(=O)=O)nc(N2Cc3c(cccc3C(F)(F)F)C2=O)c1` [AHK-1, N-[4-[(2R)-1-(4-Methyl-1,2,4-triazol-3-yl)propan-2-yl]-6-[1-oxo-4-(trifluoromethyl)-3H-isoindol-2-yl]pyridin-2-yl]methanesulfonamide], the IC50 in test [1] fell in the range of 0.2 to 1 µM. In addition, in test [2], the EC50 fell in the range of 10 to 50 µM.
